In patent US7419969B2 (Bristol-Myers Squibb Company, priority 2004, dated 2008):

Target: T1, HIV-integrase (Human immunodeficiency virus type 1 group M subtype B, UniProt P04585)
T1 construct: Recombinant integrase (0.26 ng) was incubated with the beads
Test: in-vitro activity against HIV-integrase (HIV Integrase Inhibition, SPA bead assay)
Assay type: biochemical
Settings: Table 1; recombinant integrase, activity class
Experimental: To evaluate in-vitro activity against HIV-integrase, 5 pmole of biotin labeled substrate DNA was bound to 100 μg of Streptavidin coated PVT SPA beads (Amersham Pharmacia Biotech). Recombinant integrase (0.26 ng) was incubated with the beads for 90 min at 37° C. Unbound enzyme was removed by washing the complex followed by addition of inhibitors and […] of P33 labeled target DNA. The reaction was stopped by adding EDTA to a final concentration of 10 mM. Samples were counted in TopCountNXT (Packard) and the CPM was used as a measure of integration. The reaction condition was as described in Engelman, A. and Craigie, R. J. Vitrol. 1996, 69, 5908. The sequences of substrate and target DNA were described in Nucleic Acid Research 1994, 22, 1121.

| Compound | IC50 [nM] |
| --- | --- |
| Cc1ccc(CNC(=O)c2nc3n(c(=O)c2O)CCOC32CCCC2)cc1C [Example 22, N-[(3,4-dimethylphenyl)methyl]-6′,7′-dihydro-3′-hydroxy-4′-oxo-spiro[cyclopentane-1,9′(4′H)-pyrimido[2,1-c][1,4]oxazine]-2′-carboxamide] | 10 to 100 |
| O=C(NCc1ccc(F)cc1)c1nc2n(c(=O)c1O)CCOC21CCOCC1 [Example 40, N-[(4-fluorophenyl)methyl]-2,3,5,6,6′,7′-hexahydro-3′-hydroxy-4′-oxo-spiro[4H-pyran-4,9′(4′H)-pyrimido[2,1-c][1,4]oxazine]-2′-carboxamide] | 1 to 10 |
| O=C(NCc1cc(Cl)ccc1Cl)c1nc2n(c(=O)c1O)CCCC21CCC1 [Example 76, N-[(2,5-dichlorophenyl)methyl]-7′,8′-dihydro-3′-hydroxy-4′-oxo-spiro[cyclobutane-1,9′(6′H)-[4H]pyrido[1,2-α]pyrimidine]-2′-carboxamide] | 1 to 10 |
| O=C(NCc1ccc(F)cc1)c1nc2n(c(=O)c1O)CCCC21CCC1 [Example 66, N-[(4-fluorophenyl)methyl]-7′,8′-dihydro-3′-hydroxy-4′-oxo-spiro[cyclobutane-1,9′(6′H)-[4H]pyrido[1,2-α]pyrimidine]-2′-carboxamide] | 1 to 10 |
| O=C(NCc1cc(F)ccc1F)c1nc2n(c(=O)c1O)CCCC21CCC1 [Example 75, N-[(2,5-difluorophenyl)methyl]-7′,8′-dihydro-3′-hydroxy-4′-oxo-spiro[cyclobutane-1,9′(6′H)-[4H]pyrido[1,2-α]pyrimidine]-2′-carboxamide] | 10 to 100 |
| Cc1cc(CNC(=O)c2nc3n(c(=O)c2O)CCOC32CCOCC2)ccc1F [Example 45, N-[(4-fluoro-3-methylphenyl)methyl]-2,3,5,6,6′,7′-hexahydro-3′-hydroxy-4′-oxo-spiro[4H-pyran-4,9′(4′H)-pyrimido[2,1-c][1,4]oxazine]-2′-carboxamide] | 1 to 10 |
| Cc1ncnn1-c1cc(F)ccc1CNC(=O)c1nc2n(c(=O)c1O)CCOC21CCC1 [Example 57, N-[[4-fluoro-2-(5-methyl-1H-1,2,4-triazol-1-yl)phenyl]methyl]-6′,7′-dihydro-3′-hydroxy-4′-oxo-spiro[cyclobutane-1,9′(4′H)-pyrimido[2,1-c][1,4]oxazine]-2′-carboxamide] | 1 to 10 |
| CN(C)S(=O)(=O)c1cc(F)ccc1CNC(=O)c1nc2n(c(=O)c1O)CCOC21CCCC1 [Example 28, N-[[(2-(dimethylamino)sulfonyl]-4-fluorophenyl)methyl]-6′,7′-dihydro-3′-hydroxy-4′-oxo-spiro[cyclopentane-1,9′(4′H)-pyrimido[2,1-c][1,4]oxazine]-2′-carboxamide] | 1 to 10 |
| O=C(NCCCc1ccc(F)cc1)c1nc2n(c(=O)c1O)CCOC21CCCC1 [Example 31, N-[3-(4-fluorophenyl)propyl]-6′,7′-dihydro-3′-hydroxy-4′-oxo-spiro[cyclopentane-1,9′(4′H)-pyrimido[2,1-c][1,4]oxazine]-2′-carboxamide] | 10 to 100 |

Same assay, conditions: Table 1a; recombinant integrase, activity class

| Compound | IC50 [nM] |
| --- | --- |
| CN1CCn2c(nc(C(=O)NCc3ccc(F)cc3-n3cncn3)c(O)c2=O)C12CCC2 [Example 99, Spiro[cyclobutane-1,9′(6′H)-[4H]pyrazino[1,2-a]pyrimidine]-2′-carboxamide, N-[[4-fluoro-2-(1H-1,2,4-triazol-1-yl)phenyl]methyl]-7′,8′-dihydro-3′-hydroxy-8′-methyl-4′-oxo-] | 1 to 10 |
| Cc1ncnn1-c1cc(F)ccc1CNC(=O)c1nc2n(c(=O)c1O)CCN(C)C21CCCC1 [Example 94, Spiro[cyclopentane-1,9′(6′H)-[4H]pyrazino[1,2-a]pyrimidine]-2′-carboxamide, N-[[4-fluoro-2-(5-methyl-1H-1,2,4-triazol-1-yl)phenyl]methyl]-7′,8′-dihydro-3′-hydroxy-8′-methyl-4′-oxo-] | 10 to 100 |
